Data taken from the NIST ThermoML archive (doi:10.1007/s10765-005-8089-2).

Legend:
[1] = Liquid
[2] = xn = mol fraction of the nth substance listed; conditions: Liquid, Falling or rolling sphere viscometry, x1 = 1

CCO [ethanol]
viscosity [mPa·s], [1], Falling or rolling sphere viscometry
Conditions	100 kPa	20000 kPa	40000 kPa	60000 kPa	80000 kPa	100000 kPa
293.15 K	1.194	1.344	1.494	1.647	1.797	1.955
313.15 K	0.826	0.948	1.059	1.171	1.282	1.392
333.15 K	0.59	0.683	0.769	0.851	0.934	1.015
353.15 K	–	0.51	0.574	0.636	0.699	0.763

CO [methanol]
viscosity [mPa·s], [1], Capillary tube (Ostwald / Ubbelohde) method
Conditions	100 kPa	20000 kPa	40000 kPa	60000 kPa	80000 kPa	100000 kPa
293.15 K	0.583	0.646	0.706	0.767	0.83	0.894
313.15 K	0.445	0.497	0.546	0.593	0.64	0.683
333.15 K	0.343	0.386	0.424	0.462	0.501	0.543
353.15 K	–	0.303	0.337	0.368	0.4	0.433

CCO [ethanol] + Cc1ccccc1
viscosity [mPa·s], [2]
Conditions	100 kPa	20000 kPa	40000 kPa	60000 kPa	80000 kPa	100000 kPa
293.15 K	1.194	1.344	1.494	1.647	1.797	1.955
313.15 K	0.826	0.948	1.059	1.171	1.282	1.392
333.15 K	0.59	0.683	0.769	0.851	0.934	1.015
353.15 K	–	0.51	0.574	0.636	0.699	0.763
